Measurements as given in patent US20260265238A1, “COMPOUNDS AND PHARMACEUTICAL COMPOSITIONS THAT DEGRADE SWI/SNF-RELATED MATRIX-ASSOCIATED ACTIN-DEPENDENT REGULATOR OF CHROMATIN SUBFAMILY A” (Plexium, Inc., priority 2023, published 2026).

Legend:
[1] = molecular target: T1, SMARCA2-HiBiT HeLa cells (protein which is expressed from the SMARCA2 gene) (Homo sapiens, UniProt P51531); assay: SMARCA2 degradation assay (HiBiT-fusion HeLa cell line, 24 h, luminescence); format: cell-based
T1 construct: protein which is expressed from the SMARCA2 and SMARCA4 genes; host or cells: HeLa (SMARCA2-HiBiT engineered line)
Procedure, shortened: (§1)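 In this 24-hour cellular degradation readout, HiBiT-tagged HeLa lines received compound at up to typically 10 μM down to 300 pM in 10 points. After lysis with LgBiT and substrate, luminescence signals were used to build dose-response curves for DC50.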

[2] = molecular target: T2, SMARCA4-HiBiT HeLa cells (protein which is expressed from the SMARCA4 gene) (Homo sapiens, UniProt P51532); assay: SMARCA4 degradation assay (HiBiT-fusion HeLa cell line, 24 h, luminescence); format: cell-based
T2 construct: protein which is expressed from the SMARCA2 and SMARCA4 genes; host or cells: HeLa (SMARCA4-HiBiT engineered line)
Procedure, shortened: as §1

T2 sequence (P51532 whole entry, the tested form may be a part): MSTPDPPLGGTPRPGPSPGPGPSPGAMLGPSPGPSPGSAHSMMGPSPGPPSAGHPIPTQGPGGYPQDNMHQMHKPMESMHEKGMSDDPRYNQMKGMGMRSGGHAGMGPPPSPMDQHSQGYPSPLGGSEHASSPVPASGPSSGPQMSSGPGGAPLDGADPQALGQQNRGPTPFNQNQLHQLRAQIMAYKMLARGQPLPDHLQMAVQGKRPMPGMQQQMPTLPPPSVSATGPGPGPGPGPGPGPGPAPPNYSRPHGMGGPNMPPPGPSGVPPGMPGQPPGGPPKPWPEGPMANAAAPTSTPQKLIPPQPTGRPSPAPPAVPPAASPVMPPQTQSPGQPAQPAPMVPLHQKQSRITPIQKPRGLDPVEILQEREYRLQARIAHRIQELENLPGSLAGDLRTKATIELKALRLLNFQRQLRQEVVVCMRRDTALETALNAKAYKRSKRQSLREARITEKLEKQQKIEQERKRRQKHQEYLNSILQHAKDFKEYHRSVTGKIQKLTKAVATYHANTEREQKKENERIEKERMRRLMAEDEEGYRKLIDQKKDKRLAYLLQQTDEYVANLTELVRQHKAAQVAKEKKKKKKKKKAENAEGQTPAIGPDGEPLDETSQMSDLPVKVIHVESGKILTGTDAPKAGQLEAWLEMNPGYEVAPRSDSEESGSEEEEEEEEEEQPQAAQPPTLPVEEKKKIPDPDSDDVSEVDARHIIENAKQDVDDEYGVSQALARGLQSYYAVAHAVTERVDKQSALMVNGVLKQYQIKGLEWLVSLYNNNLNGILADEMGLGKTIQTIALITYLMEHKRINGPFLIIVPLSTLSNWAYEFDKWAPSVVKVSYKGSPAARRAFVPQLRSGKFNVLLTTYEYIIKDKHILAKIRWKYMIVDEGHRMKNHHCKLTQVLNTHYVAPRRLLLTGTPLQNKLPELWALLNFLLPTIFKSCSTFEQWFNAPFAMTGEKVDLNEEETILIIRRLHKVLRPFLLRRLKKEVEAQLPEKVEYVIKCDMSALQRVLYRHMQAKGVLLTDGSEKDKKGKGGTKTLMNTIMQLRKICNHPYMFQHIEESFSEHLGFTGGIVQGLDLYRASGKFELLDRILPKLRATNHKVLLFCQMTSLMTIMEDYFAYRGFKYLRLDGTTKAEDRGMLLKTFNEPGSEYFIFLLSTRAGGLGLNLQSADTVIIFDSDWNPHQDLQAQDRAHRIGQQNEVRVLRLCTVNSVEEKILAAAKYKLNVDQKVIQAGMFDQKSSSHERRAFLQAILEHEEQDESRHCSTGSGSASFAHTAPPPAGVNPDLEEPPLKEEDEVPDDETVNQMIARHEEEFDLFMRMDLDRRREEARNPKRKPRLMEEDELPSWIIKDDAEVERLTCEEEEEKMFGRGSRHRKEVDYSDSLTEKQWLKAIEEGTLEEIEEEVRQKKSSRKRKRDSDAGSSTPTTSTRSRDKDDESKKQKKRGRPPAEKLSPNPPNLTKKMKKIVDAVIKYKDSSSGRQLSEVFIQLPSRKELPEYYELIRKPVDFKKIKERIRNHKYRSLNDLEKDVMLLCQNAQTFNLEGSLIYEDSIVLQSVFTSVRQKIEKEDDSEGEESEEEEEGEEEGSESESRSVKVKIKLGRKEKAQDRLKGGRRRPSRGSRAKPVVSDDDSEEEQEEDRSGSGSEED
T1 sequence (P51531 whole entry, the tested form may be a part): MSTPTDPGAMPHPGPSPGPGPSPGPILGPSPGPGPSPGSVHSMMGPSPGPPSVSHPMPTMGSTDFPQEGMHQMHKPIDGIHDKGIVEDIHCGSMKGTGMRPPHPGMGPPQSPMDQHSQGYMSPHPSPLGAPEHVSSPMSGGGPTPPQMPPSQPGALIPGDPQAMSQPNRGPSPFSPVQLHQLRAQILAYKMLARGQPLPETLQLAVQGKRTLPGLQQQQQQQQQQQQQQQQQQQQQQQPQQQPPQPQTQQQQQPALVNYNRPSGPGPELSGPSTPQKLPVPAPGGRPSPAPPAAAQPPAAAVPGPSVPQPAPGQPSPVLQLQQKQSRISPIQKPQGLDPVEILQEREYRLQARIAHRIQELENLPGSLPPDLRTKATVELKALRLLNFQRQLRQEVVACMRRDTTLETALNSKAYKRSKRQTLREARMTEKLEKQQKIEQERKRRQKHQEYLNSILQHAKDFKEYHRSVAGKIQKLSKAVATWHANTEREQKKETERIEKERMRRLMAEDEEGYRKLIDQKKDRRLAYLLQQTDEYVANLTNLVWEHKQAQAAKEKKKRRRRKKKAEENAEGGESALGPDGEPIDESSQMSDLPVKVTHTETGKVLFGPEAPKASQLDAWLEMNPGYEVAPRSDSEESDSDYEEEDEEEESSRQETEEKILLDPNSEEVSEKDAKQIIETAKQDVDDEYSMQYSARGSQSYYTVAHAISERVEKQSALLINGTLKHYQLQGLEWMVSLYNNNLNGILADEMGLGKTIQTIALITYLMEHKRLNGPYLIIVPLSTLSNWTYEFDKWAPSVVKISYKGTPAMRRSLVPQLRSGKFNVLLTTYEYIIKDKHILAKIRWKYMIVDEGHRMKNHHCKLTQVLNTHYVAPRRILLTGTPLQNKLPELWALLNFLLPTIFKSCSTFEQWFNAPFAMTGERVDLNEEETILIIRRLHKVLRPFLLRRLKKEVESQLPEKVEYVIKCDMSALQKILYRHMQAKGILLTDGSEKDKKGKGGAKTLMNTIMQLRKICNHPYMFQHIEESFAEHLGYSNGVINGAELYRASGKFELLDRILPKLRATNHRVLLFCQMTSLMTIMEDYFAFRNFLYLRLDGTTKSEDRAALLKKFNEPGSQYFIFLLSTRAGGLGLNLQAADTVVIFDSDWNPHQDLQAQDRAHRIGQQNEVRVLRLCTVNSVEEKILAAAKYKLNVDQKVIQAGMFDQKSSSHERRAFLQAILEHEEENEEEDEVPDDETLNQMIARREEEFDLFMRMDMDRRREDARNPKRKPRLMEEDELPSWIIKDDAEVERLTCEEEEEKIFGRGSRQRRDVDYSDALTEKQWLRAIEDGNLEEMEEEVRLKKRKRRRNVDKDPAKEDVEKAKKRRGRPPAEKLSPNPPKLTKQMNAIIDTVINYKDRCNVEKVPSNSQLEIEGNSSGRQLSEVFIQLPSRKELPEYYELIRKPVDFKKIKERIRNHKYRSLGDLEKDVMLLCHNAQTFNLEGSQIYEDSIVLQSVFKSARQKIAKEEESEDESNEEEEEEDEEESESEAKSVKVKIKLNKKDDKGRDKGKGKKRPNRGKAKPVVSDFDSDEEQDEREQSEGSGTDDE

DC50 [1] [nM]	SMARCA2 % Degradation @ 1 μM ([1]; @ 1 μM)	DC50 [2] [nM]	inhibition at 1 µM ([2]; @ 1 μM) [%]	SMARCA2 % Degradation @ 1 μM ([1]; 1 μM)	inhibition at 1 µM ([2]; 1 μM) [%]	Compound
< 50	+++ (+++=>70%)	< 50	30 to 70			C[C@@H]1CCN(c2cc(-c3ccccc3O)nnc2N)CCN1c1ccnc(/C=C/CN(C)CCF)n1 [Compound P-164]
50 to 500	+++ (+++=>70%)	50 to 500	30 to 70			C[C@@H]1CCN(c2cc(-c3ccccc3O)nnc2N)CCN1c1ccnc(C#CCNC(=O)c2cc3ncccn3n2)n1 [Compound P-14, (R)-N-(3-(4-(4-(3-amino-6-(2-hydroxyphenyl)pyridazin-4-yl)-7-methyl-1,4-diazepan-1-yl)pyrimidin-2-yl)prop-2-yn-1-yl)pyrazolo[1,5-a]pyrimidine-2-carboxamide]
< 50	++ (++=30-70%)	< 50	30 to 70			Cc1nn2ccn(CC#Cc3nccc(N4CCN(c5cc(-c6ccccc6O)nnc5N)CC4)n3)c(=O)c2c1C [Compound P-281, 5-[3-(4-{4-[3-amino-6-(o-hydroxyphenyl)-4-pyridazinyl]-1-piperazinyl}-2-pyrimidinyl)-2-propynyl]-2,3-dimethyl-1,5,7a-triaza-4(5H)-indenone]
50 to 500	++ (++=30-70%)	50 to 500	30 to 70			C[C@H]1CN(c2ccnc(C#CCNc3ccn(C)n3)n2)CCN1c1cc(-c2ccccc2O)nnc1N [Compound P-328, 0-{5-[(S)-2-methyl-4-{2-[3-(1-methyl-3-pyrazolylamino)-1-propynyl]-4-pyrimidinyl}-1-piperazinyl]-6-amino-3-pyridazinyl}phenol]
500 to 5000		500 to 5000		++ (++=30-70%)	< 30	C[C@@H]1CN(CC#Cc2nccc(N3CCCN(c4cc(-c5ccccc5O)nnc4N)CC3)n2)C[C@H](c2ccccc2)O1 [Compound P-380, 0-{5-[4-(2-{3-[(2R,6S)-2-methyl-6-phenyl-4-morpholinyl]-1-propynyl}-4-pyrimidinyl)-1,4-diazepan-1-yl]-6-amino-3-pyridazinyl}phenol]
50 to 500	+++ (+++=>70%)	50 to 500	30 to 70			Nc1nnc(-c2ccccc2O)cc1N1CCCN(c2ccnc(C#CCN3CCCCC3)n2)CC1 [Compound P-373, 0-(6-amino-5-{4-[2-(3-piperidino-1-propynyl)-4-pyrimidinyl]-1,4-diazepan-1-yl}-3-pyridazinyl)phenol]

Compound	DC50 [1] [nM]	SMARCA2 % Degradation @ 1 μM ([1]; @ 1 μM)	DC50 [2] [nM]	inhibition at 1 µM ([2]; @ 1 μM) [%]	SMARCA2 % Degradation @ 1 μM ([1]; 1 μM)	inhibition at 1 µM ([2]; 1 μM) [%]
Nc1nnc(-c2ccccc2O)cc1N1C2CCC1CN(c1ccnc(C#CCCNC(=O)c3cc4ncccn4n3)n1)C2 [Compound P-22, N-(4-(4-(8-(3-amino-6-(2-hydroxyphenyl)pyridazin-4-yl)-3,8-diazabicyclo[3.2.1]octan-3-yl)pyrimidin-2-yl)but-3-yn-1-yl)pyrazolo[1,5-a]pyrimidinc-2-carboxamide]	500 to 5000	++ (++=30-70%)	500 to 5000	30 to 70		
Cc1nn2ccn(CC#Cc3nccc(N4CC5CCC(C4)N5c4cc(-c5ccccc5O)nnc4N)n3)c(=O)c2c1C [Compound P-282, 5-[3-(4-{8-[3-amino-6-(o-hydroxyphenyl)-4-pyridaziny1]-3,8-diazabicyclo[3.2.1]oct-3-yl}-2-pyrimidinyl)-2-propynyl]-2,3-dimethyl-1,5,7a-triaza-4(5H)-indenone]	50 to 500	++ (++=30-70%)	50 to 500	30 to 70		
Nc1nnc(-c2ccccc2O)cc1N1CC2CCC(C1)N2c1ccnc(C#CCN2CCCCC2)n1 [Compound P-288, 0-(6-amino-5-{8-[2-(3-piperidino-1-propynyl)-4-pyrimidinyl]-3,8-diazabicyclo[3.2.1]oct-3-y1}-3-pyridazinyl)phenol]	50 to 500	++ (++=30-70%)	50 to 500	30 to 70		
